Where two headings read alike, the source gives them in different places.
Legend:
[1] = test system: Feces; test: Lipid Extraction Studies in Rats, Example 11: feces; type: in vivo, Sprague Dawley male rats; conditions: oral 20 mg/kg/day, fourteen days, ± SD
[2] = test system: sn-Glycerol-3-Phosphate Acyl Transferase; test: In vitro enzyme activity, liver homogenate: sn-glycerol-3-phosphate acyl transferase; type: biochemical, CF1 male mouse; conditions: ± SD, N = 6
Protocol: (§1) In vitro enzymatic studies were undertaken using 10% homogenates of CF1 male mouse liver with […] of compound 3,4,5,6-dibenzohomopiperidine. In addition, in vivo enzymatic studies were performed, again using 10% liver homogenates (prepared in 0.25 M sucrose plus 0.001 M (ethylenedinitrilo)-tetraacetic acid, ph 7.25 from CF1 male mice obtained after administering 3,4,5,6-dibenzohomopiperidine for 16 days at a concentration ranging from 10 to 60 mg/kg/day, intraperitoneally.
(§2) The following enzyme activities were determined by following standard literature procedures: acetyl coenzyme synthetase; adenosine triphosphate dependent citrate lyase; mitochondrial citrate exchange; cholesterol/7 hydroxylase; 3-hydroxy-3-methyl-glutaryl coenzyme A reductase; acetyl coenzyme A carboxylase activity; fatty acid synthetase activity; sn-glycerol-3-phosphate acyl transferase activity; phosphatidate phosphohydrolase activity; cholesterol acyl transferase; and heparin activated hepatic lypoprotein lipase. Protein was determined for all enzyme assays by the Lowry et al. technique (J. Biol. Chem, 193, 265 (1951)).

[3] = target: T1, Hepatic Lipoprotein Lipase (Mus musculus, UniProt P27656); test: In vitro enzyme activity, liver homogenate: hepatic lipoprotein lipase; type: biochemical, CF1 male mouse; conditions: ± SD, N = 6, read-out: Percent Control, in vitro enzyme activity
T1 construct: 10% homogenates of CF1 male mouse liver; from tissue; host or cells: CF1 male mouse liver, 10% homogenate
T1 sequence (P27656 22-510): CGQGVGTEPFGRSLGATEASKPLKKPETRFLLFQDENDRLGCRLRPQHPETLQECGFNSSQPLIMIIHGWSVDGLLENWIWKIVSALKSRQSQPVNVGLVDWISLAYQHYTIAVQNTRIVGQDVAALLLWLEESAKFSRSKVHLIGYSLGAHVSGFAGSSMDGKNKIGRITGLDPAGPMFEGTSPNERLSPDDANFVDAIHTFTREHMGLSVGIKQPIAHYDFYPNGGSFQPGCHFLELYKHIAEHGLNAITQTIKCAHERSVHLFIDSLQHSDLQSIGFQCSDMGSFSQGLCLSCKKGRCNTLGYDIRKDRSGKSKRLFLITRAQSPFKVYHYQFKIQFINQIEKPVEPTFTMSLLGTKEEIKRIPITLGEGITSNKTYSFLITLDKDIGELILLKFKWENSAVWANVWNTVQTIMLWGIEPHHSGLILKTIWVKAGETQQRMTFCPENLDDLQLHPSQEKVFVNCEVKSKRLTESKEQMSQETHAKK
Protocol: as §1, §2

[4] = test system: Phosphatidate Phosphohydrolase; test: In vivo enzyme activity, liver of treated mice: phosphatidate phosphohydrolase; design: species or system CF1 male mice; conditions: 16 days, ± SD
Protocol: as §1, §2

[5] = test system: serum cholesterol; test: Testing of Normal Mice: serum cholesterol (modified Liebermann-Burchard), Example 7; type: in vivo, CF1 male mice; conditions: Mus musculus, 20 mg/kg/day ip
Protocol: Suspensions of Compounds Nos. 1-9 were prepared wherein the compounds were suspended in an aqueous 1% carboxymethylcelluose solution, homogenized and administered to CF1 male mice, each weighing approximately 25 grams, intraperitoneally on a daily basis for 16 days. The dosage was, with the exception of one compound, 20 milligrams of the active compound per kilogram of mouse weight per day. On days 9 and 16 blood was obtained by tail vein bleeding. The blood serum was separated by centrifugation for three minutes. Serum cholesterol levels were determined by a modification of the Liebermann-Burchard reaction. Serum was also collected on day 16 and the triglycerides content was determined by a commercial kit, BioDynamics/bnc Single Vile Colorimetric Method 348201. Each compound was tested on a group of six mice.
In addition to the above-described treated mice, untreated control groups of six mice were similarly tested on days 9 and 14 or 16 to determine their serum cholesterol and triglycerides blood levels. Table 5 reports the percent control, based on the serum cholesterol and serum triglyceride levels of the treated mice compared to the untreated controls. Table 5 also includes the standard deviation indicating the level of confidence of these numbers.
Example 7 was repeated substituting clofibrate, a compound used in the prior art to lower serum cholesterol and serum triglyceride levels. The clofibrate was administered as a suspension in an aqueous 1% solution of carboxymethylcellulose. However, unlike the compounds of the present invention which were administered at a dosage of 20 mg/kg day, ip, this compound was administered at the elevated concentration of 150 mg/kg day, ip.

[6] = test system: serum cholesterol; test: Testing of Normal Rats: serum cholesterol, Example 8; type: in vivo, Sprague Dawley male rats; conditions: oral 20 mg/kg/day
Protocol: In Example 8 a set of six Sprague Dawley male rats, each weighing approximately 350 grams, were orally treated with a concentration of 20 mg per kilogram of rat weight per day, again suspended in a 1% aqueous solution of CMC. The dosage was applied orally by an intubation needle. On days 9 and 16 serum cholesterol and serum triglycerides blood levels of the rats were measured utilizing th procedure of Example 7.
A control group of six similar Sprague Dawley male rats were untreated but tested on Days 9 and 16 in accordance with the tests administered to the treated rats. Table 6 reports the percent control based on the decrease in serum cholesterol and serum triglycerides of the treated rats compared to the levels measured in the untreated control group.

[7] = target: T2, Acyl CoA Cholesterol Acyl (Mus musculus, UniProt O88908); test: In vitro enzyme activity, liver homogenate: acyl CoA cholesterol acyl transferase; type: biochemical, CF1 male mouse; conditions: ± SD, N = 6, read-out: Percent Control, in vitro enzyme activity
T2 construct: 10% homogenates of CF1 male mouse liver; from tissue; host or cells: CF1 male mouse liver, 10% homogenate
T2 sequence (O88908 1-525): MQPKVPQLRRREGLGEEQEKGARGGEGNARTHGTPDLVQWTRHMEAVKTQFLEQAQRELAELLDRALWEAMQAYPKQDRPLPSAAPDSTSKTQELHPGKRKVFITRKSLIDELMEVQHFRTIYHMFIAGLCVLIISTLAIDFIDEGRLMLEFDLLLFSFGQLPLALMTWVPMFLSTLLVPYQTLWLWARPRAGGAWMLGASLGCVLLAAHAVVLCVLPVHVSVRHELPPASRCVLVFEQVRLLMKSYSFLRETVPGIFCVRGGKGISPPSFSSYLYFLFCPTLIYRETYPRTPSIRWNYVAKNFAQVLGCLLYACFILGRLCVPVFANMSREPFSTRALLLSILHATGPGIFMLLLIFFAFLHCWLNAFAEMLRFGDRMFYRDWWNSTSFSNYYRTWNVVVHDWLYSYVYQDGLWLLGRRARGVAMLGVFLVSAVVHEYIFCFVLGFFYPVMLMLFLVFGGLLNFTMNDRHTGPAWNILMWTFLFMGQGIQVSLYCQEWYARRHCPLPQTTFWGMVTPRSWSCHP
Protocol: as §1, §2

c1ccc2c(c1)CNCc1ccccc1-2 [Compound 3, 3,4,5,6-dibenzohomopiperidine]
Cholesterol, concentration as a function of control [1]: 103 ± 7%
Mg Lipid Wt, concentration as a function of control [1]: 102 ± 8%
Neutral Lipids, concentration as a function of control [1]: 108 ± 9%
Phospholipids, concentration as a function of control [1]: 108 ± 10%
Protein, concentration as a function of control [1]: 133 ± 8%
Triglycerides, concentration as a function of control [1]: 99 ± 7%
Percent Control, in vitro enzyme activity ([2]; 50 μM): 35 ± 6%
Percent Control, in vitro enzyme activity ([2]; 100 μM): 34 ± 5%
Percent Control, in vitro enzyme activity ([2]; 200 μM): 51 ± 4%
remaining activity at 50 µM ([3]; 50 μM): 90 ± 7%
remaining activity at 100 µM ([3]; 100 μM): 89 ± 6%
remaining activity at 200 µM ([3]; 200 μM): 72 ± 5%
Percent Control, in vivo enzyme activity ([4]; 10 mg/kg/day ip): 51 ± 4%
Percent Control, in vivo enzyme activity ([4]; 20 mg/kg/day ip): 47 ± 9%
Percent Control, in vivo enzyme activity ([4]; 40 mg/kg/day ip): 81 ± 6%
Percent Control, in vivo enzyme activity ([4]; 60 mg/kg/day ip): 100 ± 6%
response vs control in vivo at 20 mg/kg ([5]; 216 h, day 9, ± SD, read-out: Serum Cholesterol Control, % Day 9): 68 ± 4%
response vs control in vivo at 20 mg/kg ([5]; 384 h, day 16, ± SD, read-out: Serum Cholesterol Control, % Day 16): 48 ± 4%
% Control Serum Cholesterol Day 9 ([6]; day 9, ± SD): 75 ± 5%
% Control Serum Cholesterol Day 16 ([6]; day 16, ± SD): 64 ± 3%
remaining activity at 50 µM ([7]; 50 μM): 60 ± 6%
remaining activity at 100 µM ([7]; 100 μM): 59 ± 5%
remaining activity at 200 µM ([7]; 200 μM): 3 ± 1%
